The results in this text go back to US9873702B2, “Heterocyclic compounds as biogenic amine transport modulators” (Southern Research Institute, priority 2014, dated 2018).

In one assay the target is T1, DAT (Rattus norvegicus, UniProt P23977).
T1 construct: from tissue; host or cells: rat caudate membranes
The experiment in a line: Dopamine transporter binding, inhibition of [^3H]WIN35428 binding in rat caudate membranes. The following applies: for EC50: read-out: WIN Binding EC50 (μM ± SD); for Emax: 2 h, read-out: DAT Binding εmax. The protocol:
The ability of test drugs to inhibit [^3H]WIN35428 binding to DAT in rat caudate membranes was assessed as follows. For each experiment, caudates from four rat brains were suspended in 15 mL ice cold assay buffer (50 mM sodium phosphate pH 7.4) and homogenized using a polytron (setting 6, 20 sec). The homogenate was centrifuged at 30,000×g for 10 minutes at 4° C. The pellet was resuspended with vigorous vortexing in 15 mL fresh ice cold assay buffer, and the centrifugation was repeated. The pellet was resuspended in 15 mL fresh ice cold assay buffer with vigorous vortexing followed by six strokes with a glass-on-glass hand-held homogenizer and was diluted to a final volume of 235 mL in ice cold assay buffer. [^3H]WIN35428 was diluted to 10 nM in assay buffer that contained 25 μg/mL chymostatin, 25 μg/mL leupeptin, 0.1 mM EDTA, and 0.1 mM EGTA. Each assay tube contained 0.75 mL membrane preparation, 0.15 mL test drug diluted in assay buffer containing 1 mg/mL bovine serum albumin, and 0.1 mL [^3H]WIN35428 preparation (final concentration of 1 nM). Assays were initiated by the addition of membranes and were terminated after 2 hours at 25° C. by rapid vacuum filtration. Retained tritium was measured as described. The data from three experiments were pooled and fit to a dose-response curve equation (using Kaleidagraph), to yield an Emax and EC50 value.

Assay [1] concerns the target norepinephrine transporter (NET) (Rattus norvegicus, UniProt Q9WTR4). The assay is described as follows: Norepinephrine reuptake ([^3H]norepinephrine uptake) inhibition in rat brain synaptosomes. The following applies: for NE Uptake Emax (% I ± SD): maximal inhibition from dose-response fit.
Protocol: Freshly removed whole brain minus cerebellum and caudate was homogenized in 10% ice-cold sucrose with 12 strokes of a hand-held Potter-Elvehjem homogenizer followed by centrifugation at 1000×g for 10 minutes. The supernatants were saved on ice and used immediately. Transporter activity at NET was assessed using 10 nM [^3H]norepinephrine. […] Uptake inhibition assays were conducted at 37° C. and were initiated by adding 100 μL of tissue to 900 μL assay buffer containing test drug and [^3H]norepinephrine. Test drugs were diluted in assay buffer containing 1 mg/mL bovine serum albumin. Nonspecific uptake was measured by incubating in the presence of 10 μM indatraline. The reactions were stopped after 10 minutes by rapid vacuum filtration with a cell harvester (BRANDEL) over GF/B filters (Whatman) presoaked in wash buffer maintained at 25° C. (10 mM Tris-HCl, pH 7.4/150 mM NaCl). Filters were rinsed with 6 mL wash buffer and retained tritium was quantified by a MicroBeta liquid scintillation counter (PerkinElmer) after overnight extraction in 0.6 mL of liquid scintillation cocktail (Cytoscint, ICN). The data from three experiments were pooled and fit to a dose-response curve equation (using Kaleidagraph), to yield an Emax and EC50 value.
The data from three experiments were pooled and fit to a dose-response curve equation (using KaleidaGraph; Synergy Software, Reading, Pa.) to yield an Emax and IC50 value.
Assay [2] addresses T2, dopamine transporter (DAT) (Rattus norvegicus, UniProt P23977). The experiment in a line: Dopamine transporter-mediated [^3H]MPP^+ release, shift of D-amphetamine-induced release, rat caudate synaptosomes. To be noted: for Kb: apparent Ke from shift of D-amphetamine-induced [^3H]MPP^+ release, compound at the concentration of column 1, read-out: Ke App. Also noted: Freshly removed caudate was homogenized in 10% ice-cold sucrose; from tissue; host or cells: rat caudate synaptosomes. Type of assay: biochemical.

Assay [3] addresses T3, serotonin transporter (SERT) (Rattus norvegicus, UniProt P31652).
T3 construct: Freshly removed whole brain minus cerebellum and caudate was homogenized; from tissue; host or cells: rat whole brain minus cerebellum and caudate, synaptosomes
The experiment in a line: Serotonin reuptake ([^3H]serotonin uptake) inhibition in rat brain synaptosomes. Type of assay: biochemical. To be noted: mean ± S.D., n = 3; for Emax: read-out: SERT Uptake Emax; for IC50: read-out: SERT Uptake IC50.

Assay [4] addresses T2, dopamine transporter (DAT). The assay is described as follows: Dopamine reuptake ([^3H]dopamine uptake) inhibition in rat brain synaptosomes. The following applies: for IC50: DAT Uptake IC50, [3H]DA uptake inhibition, mean ± S.D., n = 3; for Emax: read-out: DAT Uptake Emax.
The mark [5] stands for this setting: rat brain synaptosomes, 10 nM [^3H]norepinephrine.
Setting [6] is: read-out: NE Uptake EC50 (nM ± SD), rat brain synaptosomes, 10 nM [^3H]norepinephrine, 10 min, 37° C.
Setting [7] is: read-out: NET Uptake IC50, mean ± S.D., n = 3.

Where two headings read alike, the source gives them in different places.

T3 sequence (P31652 whole entry): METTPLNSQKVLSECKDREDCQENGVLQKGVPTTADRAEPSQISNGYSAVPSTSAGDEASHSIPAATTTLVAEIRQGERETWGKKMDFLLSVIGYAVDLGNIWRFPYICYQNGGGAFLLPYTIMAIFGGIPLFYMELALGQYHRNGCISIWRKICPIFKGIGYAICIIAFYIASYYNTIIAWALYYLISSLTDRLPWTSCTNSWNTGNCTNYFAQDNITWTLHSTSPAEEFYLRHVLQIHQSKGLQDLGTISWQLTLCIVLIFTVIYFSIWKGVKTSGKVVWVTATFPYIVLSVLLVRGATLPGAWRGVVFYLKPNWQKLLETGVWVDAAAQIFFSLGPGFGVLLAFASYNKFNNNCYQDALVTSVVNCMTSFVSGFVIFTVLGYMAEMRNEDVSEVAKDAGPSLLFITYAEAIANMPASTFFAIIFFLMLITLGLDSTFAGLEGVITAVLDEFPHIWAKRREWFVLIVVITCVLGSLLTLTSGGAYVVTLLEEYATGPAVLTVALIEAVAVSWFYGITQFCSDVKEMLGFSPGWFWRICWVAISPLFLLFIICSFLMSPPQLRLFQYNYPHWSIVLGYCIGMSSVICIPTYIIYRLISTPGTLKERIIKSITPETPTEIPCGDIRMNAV
T1 sequence (P23977 whole entry): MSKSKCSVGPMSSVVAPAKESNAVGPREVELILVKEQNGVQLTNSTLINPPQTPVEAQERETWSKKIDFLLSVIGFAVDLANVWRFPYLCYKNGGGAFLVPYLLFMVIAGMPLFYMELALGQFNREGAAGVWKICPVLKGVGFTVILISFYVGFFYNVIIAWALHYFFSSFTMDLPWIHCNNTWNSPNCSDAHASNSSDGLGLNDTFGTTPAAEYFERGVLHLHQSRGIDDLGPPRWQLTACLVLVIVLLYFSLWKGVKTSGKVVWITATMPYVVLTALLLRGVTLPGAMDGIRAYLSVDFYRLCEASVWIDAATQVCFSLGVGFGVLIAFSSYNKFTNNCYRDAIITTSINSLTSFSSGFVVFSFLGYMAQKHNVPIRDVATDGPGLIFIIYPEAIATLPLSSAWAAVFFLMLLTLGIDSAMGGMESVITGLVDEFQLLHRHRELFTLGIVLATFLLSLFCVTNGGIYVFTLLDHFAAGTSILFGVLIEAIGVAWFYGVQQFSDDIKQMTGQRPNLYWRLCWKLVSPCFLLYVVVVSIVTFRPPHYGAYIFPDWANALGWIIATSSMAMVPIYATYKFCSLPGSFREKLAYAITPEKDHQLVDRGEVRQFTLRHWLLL
T2 sequence (P23977 whole entry): as above

Take `CN(C)c1ncc(-c2nc(NCCC(c3ccccc3)c3ccccc3)c3ccccc3n2)cn1` [compound 20, N-(3,3-Diphenylpropyl)-2-(2-(Dimethylamino)Pyrimidin-5-yl)Quinazolin-4-Amine]: the EC50 (usually the concentration at which the effect is half-maximal) at DAT is 2.2 ± 0.5 µM. For the same compound, the “NE Uptake Emax (% I ± SD)” value in assay [1] (setting [5]) came to 64 ± 5 % I. For the same compound, the IC50 in assay [1] (setting [6]) worked out at 8130 ± 2270 nM. Besides, the “D-Amphetamine Emax (% ± SD)” value in assay [2] (Emax of D-amphetamine for [^3H]MPP^+ release in presence of 12500 nM test compound) is on record as 103 ± 2%. In assay [2], the Kb turned out to be 64600 nM.

Take `c1ccc(C(CNc2nc(-c3ccc4nccn4c3)nc3ccccc23)C2CCCCC2)cc1` (stereo not shown) [compound 100, N-(2-Cyclohexyl-2-Phenylethyl)-2-(Imidazo[1,2-A]Pyridin-6-yl)Quinazolin-4-Amine]: the Emax stood at 59 ± 4% in assay [3], 50 ± 4% at DAT and 72 ± 2% in assay [4]. In addition, the IC50 is 83 ± 28 nM in assay [3], 12 ± 2 nM in assay [4], 153 ± 55 nM in assay [1] (setting [6]) and 153 ± 55 nM in assay [1] (setting [7]). Further, the “NET Uptake Emax” value in assay [1] (mean ± S.D., n = 3) stood at 65 ± 4%. In addition, the “NE Uptake Emax (% I ± SD)” value in assay [1] (setting [5]) is 65 ± 4 % I.

`c1ccc(C(CNc2nc(-c3cnc4nccn4c3)nc3ccccc23)c2ccccn2)cc1` (stereo not shown) [compound 98, 2-(Imidazo[1,2-A]Pyrimidin-6-yl)-N-(2-Phenyl-2-(Pyridin-2-yl)Ethyl)Quinazolin-4-Amine]: the Emax in assay [3] worked out at 54 ± 2%; on DAT, 62 ± 7%; in assay [4], 71 ± 2%. In addition, the IC50 in assay [3] was determined as 28 ± 6 nM; in assay [4], 18 ± 3 nM; in assay [1] (setting [6]) it was 132 ± 16 nM; in assay [1] (setting [7]), 132 ± 16 nM. Moreover, the “NET Uptake Emax” value in assay [1] (mean ± S.D., n = 3) turned out to be 77 ± 2%. Further, in assay [1] (setting [5]), the “NE Uptake Emax (% I ± SD)” value came to 77 ± 2 % I.

Take `CS(=O)(=O)Nc1ccc(-c2nc(NCC(c3ccccc3)c3ccccc3)c3ccccc3n2)c(Cl)c1` [SRI-31043]: the IC50 in assay [3] came to 22 ± 5 nM; in assay [4] it was 11 ± 1 nM; in assay [1] (setting [7]), 47 ± 10 nM. In addition, the Emax on DAT came out at 30 ± 3%. In assay [1] (mean ± S.D., n = 3), the “NET Uptake Emax” value is recorded as 67 ± 2%.

On to `Cc1cc(NS(C)(=O)=O)ccc1-c1nc(NCC(c2ccccc2)c2ccncc2)c2ccccc2n1` (stereo not shown) [SRI-31039], for which the IC50 was determined as 8 ± 2.8 nM in assay [3], 7.4 ± 2 nM in assay [4] and 31 ± 7 nM in assay [1] (setting [7]). In addition, the Emax on DAT turned out to be 72 ± 7%. Also, in assay [1] (mean ± S.D., n = 3), the “NET Uptake Emax” value is recorded as 71 ± 3%.

Regarding `OC(CNc1nc(-c2cnc3nccn3c2)nc2ccccc12)(c1ccccc1)c1ccccc1` [compound 99, 2-((2-(Imidazo[1,2-A]Pyrimidin-6-yl)Quinazolin-4-yl)Amino)-1,1-Diphenylethanol], the Emax in assay [3] is 56 ± 1%; at DAT, 34 ± 3%; in assay [4], 65 ± 1%. Also, the IC50 turned out to be 3.9 ± 0.4 nM in assay [3], 9.3 ± 1.1 nM in assay [4], 69 ± 18 nM in assay [1] (setting [6]) and 69 ± 18 nM in assay [1] (setting [7]). For the same compound, in assay [1] (mean ± S.D., n = 3), the “NET Uptake Emax” value worked out at 76 ± 9%. The “NE Uptake Emax (% I ± SD)” value in assay [1] (setting [5]) turned out to be 76 ± 3 % I.

Turning to `Cc1cc(NS(C)(=O)=O)ccc1-c1nc(NCC(c2ccccc2)c2ccccc2)c2ccccc2n1` [SRI-30828], the IC50 in assay [3] worked out at 20 ± 5 nM; in assay [4], 8.9 ± 1.6 nM; in assay [1] (setting [7]), 144 ± 30 nM. Moreover, at DAT, the Emax is 60 ± 7%. The “NET Uptake Emax” value in assay [1] (mean ± S.D., n = 3) amounted to 65 ± 3%.

For `OC(CNc1nc(-c2ccc3[nH]ccc3c2)nc2ccccc12)(c1ccccc1)c1ccccc1` [compound 81, 2-((2-(1H-Indol-5-yl)Quinazolin-4-yl)Amino)-1,1-Diphenylethanol], the Emax in assay [3] amounted to 57 ± 2%; at DAT, 55 ± 3%; in assay [4] it was 70 ± 2%. The IC50 in assay [3] stood at 35 ± 9 nM; in assay [4] it was 11 ± 2 nM; in assay [1] (setting [6]) it was 203 ± 79 nM; in assay [1] (setting [7]), 203 ± 79 nM. In addition, the “NET Uptake Emax” value in assay [1] (mean ± S.D., n = 3) is 73 ± 6%. For the same compound, the “NE Uptake Emax (% I ± SD)” value in assay [1] (setting [5]) was 73 ± 6 % I.

For the compound `CN(C)c1ncc(-c2nc(NCC(O)(c3ccccc3)c3ccccc3)c3ccccc3n2)cn1` [compound 80, 2-((2-(2-(Dimethylamino)Pyrimidin-5-yl)Quinazolin-4-yl)Amino)-1,1-Diphenylethanol], the results for the Emax (in assay [3]; at DAT; in assay [4]) were 51 ± 1%, 47 ± 6% and 73 ± 2%, respectively. The IC50 in assay [3] worked out at 54 ± 7 nM; in assay [4], 13 ± 2 nM; in assay [1] (setting [6]) it was 259 ± 41 nM; in assay [1] (setting [7]), 259 ± 41 nM. For the same compound, the “NET Uptake Emax” value in assay [1] (mean ± S.D., n = 3) came to 71 ± 2%. Moreover, the “NE Uptake Emax (% I ± SD)” value in assay [1] (setting [5]) turned out to be 71 ± 2 % I.

Take `CNc1ncc(-c2nc(NCC(c3ccccc3)c3ccccc3)c3ccccc3n2)cn1` [compound 41, N-(2,2-Diphenylethyl)-2-(2-(Methylamino)Pyrimidin-5-yl)Quinazolin-4-Amine]: the Emax in assay [3] stood at 60 ± 3%; at DAT, 59 ± 6%; in assay [4], 71 ± 1%. Also, the IC50 was determined as 57 ± 18 nM in assay [3], 11 ± 1 nM in assay [4], 179 ± 27 nM in assay [1] (setting [6]) and 179 ± 27 nM in assay [1] (setting [7]). In addition, in assay [1] (mean ± S.D., n = 3), the “NET Uptake Emax” value is 78 ± 2%. In assay [1] (setting [5]), the “NE Uptake Emax (% I ± SD)” value stood at 78 ± 2 % I.

Consider `c1ccc(C(CCNc2nc(-c3ccc4[nH]ccc4c3)nc3ccccc23)c2ccccc2)cc1` [compound 21, N-(3,3-Diphenylpropyl)-2-(1H-Indol-5-yl)Quinazolin-4-Amine], for which the concentration giving a half-maximal response (EC50) on DAT worked out at 0.2 µM. For the same compound, in assay [1] (setting [5]), the “NE Uptake Emax (% I ± SD)” value came out at 77 ± 3 % I. Also, the IC50 in assay [1] (setting [6]) stood at 346 ± 59 nM. Moreover, in assay [2] (Emax of D-amphetamine for [^3H]MPP^+ release in presence of 500 nM test compound), the “D-Amphetamine Emax (% ± SD)” value is on record as 78 ± 2%. Besides, the Kb in assay [2] is 886 nM. In addition, the “effect on the d-amphetamine Emax value, in words” value in assay [2] (d-amphetamine-induced DAT-mediated [^3H]MPP^+ release, blocking concentration ˜25 times IC50 for DAT uptake inhibition) is recorded as “no significant effect”.

Consider `CS(=O)(=O)Nc1ccc(-c2nc(NCC(O)(c3ccccc3)c3ccccc3)c3ccccc3n2)cc1` [SRI-30504], for which the IC50 in assay [3] turned out to be 50 ± 14 nM; in assay [4] it was 11 ± 2 nM; in assay [1] (setting [7]), 426 ± 49 nM. The Emax on DAT was 47 ± 7%. For the same compound, the “NET Uptake Emax” value in assay [1] (mean ± S.D., n = 3) was 70 ± 2%.

Regarding `CSc1ncc(-c2nc(NCC(c3ccccc3)c3ccccc3)c3ccccc3n2)cn1` [compound 30, N-(2,2-Diphenylethyl)-2-(2-(Methylthio)Pyrimidin-5-yl)Quinazolin-4-Amine], the Emax in assay [3] came out at 52 ± 3%; on DAT, 63 ± 4%; in assay [4], 71 ± 2%. The IC50 worked out at 56 ± 21 nM in assay [3], 9 ± 1.5 nM in assay [4], 204 ± 47 nM in assay [1] (setting [6]) and 204 ± 47 nM in assay [1] (setting [7]). Moreover, the “NET Uptake Emax” value in assay [1] (mean ± S.D., n = 3) worked out at 62 ± 3%. The “NE Uptake Emax (% I ± SD)” value in assay [1] (setting [5]) stood at 62 ± 3 % I.

On to `Cn1cc2cc(-c3nc(NCC(c4ccccc4)c4ccccc4)c4ccccc4n3)ccc2n1` [compound 66, N-(2,2-Diphenylethyl)-2-(2-Methyl-2H-Indazol-5-yl)Quinazolin-4-Amine], for which the Emax is 61 ± 2% in assay [3], 58 ± 3% at DAT and 69 ± 2% in assay [4]. The IC50 in assay [3] worked out at 106 ± 19 nM; in assay [4], 19 ± 4 nM; in assay [1] (setting [6]), 229 ± 43 nM; in assay [1] (setting [7]), 229 ± 43 nM. Besides, the “NET Uptake Emax” value in assay [1] (mean ± S.D., n = 3) amounted to 71 ± 3%. For the same compound, in assay [1] (setting [5]), the “NE Uptake Emax (% I ± SD)” value worked out at 71 ± 3 % I.

Regarding `c1ccc(C(CNc2nc(-c3ccc4nccn4c3)nc3ccccc23)c2cccnc2)cc1` (stereo not shown) [compound 131, 2-(Imidazo[1,2-A]Pyridin-6-yl)-N-(2-Phenyl-2-(Pyridin-3-yl)Ethyl)Quinazolin-4-Amine], the Emax in assay [3] came to 59 ± 3%; on DAT it was 44 ± 3%; in assay [4] it was 70 ± 2%. The IC50 in assay [3] is 35 ± 11 nM; in assay [4], 21 ± 3 nM; in assay [1] (setting [6]) it was 78 ± 17 nM; in assay [1] (setting [7]), 78 ± 17 nM. For the same compound, the “NET Uptake Emax” value in assay [1] (mean ± S.D., n = 3) is given as 75 ± 3%. Further, the “NE Uptake Emax (% I ± SD)” value in assay [1] (setting [5]) is listed as 75 ± 3 % I.
